According to ChEMBL document CHEMBL4414616, “Exhaustive Repertoire of Druggable Cavities at Protein-Protein Interfaces of Known Three-Dimensional Structure” (J Med Chem, 2019):
Activity calls are given as the source filed them. The calls are words filed in the database; no cut-off is given here.

What was measured:
[1] = system: Lactobacillus johnsonii; assay: Inhibition of catalytic activity of His6-tagged Lactobacillus johnsonii N6.2 cinnamoyl esterase LJ0536 expressed in Escherichia coli BL21 (DE3) assessed as reduction in hydrolysis of 4-nitrophenyl butyrate in 4-nitrophenol pre-incubated for 2 hrs
[2] = system: Lactobacillus johnsonii; assay: Inhibition of catalytic activity of His6-tagged Lactobacillus johnsonii N6.2 cinnamoyl esterase LJ0536 expressed in Escherichia coli BL21 (DE3) assessed as reduction in hydrolysis of 4-nitrophenyl butyrate in 4-nitrophenol at 400 uM in presence of 2.5 to 20 mM enzyme pre-incubated for 2 hrs
[3] = system: Lactobacillus johnsonii; assay: Non-competive inhibition of catalytic activity of His6-tagged Lactobacillus johnsonii N6.2 cinnamoyl esterase LJ0536 expressed in Escherichia coli BL21 (DE3) assessed as substrate Vmax by measuring hydrolysis of 4-nitrophenyl butyrate in 4-nitrophenol at 400 uM pre-incubated for 2 hrs (reference value: 4.094 umol/min/mg)

CC(C(=O)O)c1ccc(-c2ccccc2)c(F)c1 (stereo not drawn)
inhibition [1]: Dose-dependent effect
inhibition [2]: Active
Vmax [3]: 3.7 µmol/min/mg
